Assay results as given in patent publication US12544395B2, “Combination compositions comprising a beta-lactamase inhibitor and uses thereof” (priority 2018, dated 2026).
≈ marks a conversion by molar mass, not a printed value.

Legend:
[1] = test system: E. coli SI-NO36; assay: Broth microdilution MIC (strain enzymes: SHV-11, TEM-1); assay type: cell-based; settings: alone
[2] = test system: E. coli 3174; assay: Broth microdilution MIC (strain enzymes: TEM-1, CTXM-15); assay type: cell-based; settings: alone
[3] = test system: E. coli SI-AIRT-4; assay: Broth microdilution MIC (strain enzymes: TEM-1); assay type: cell-based; settings: alone
[4] = test system: E. coli 1924; assay: Broth microdilution MIC (strain enzymes: TEM-12); assay type: cell-based; settings: alone
[5] = test system: K. pneumoniae ESBL 8 #1; assay: Broth microdilution MIC (strain enzymes: TEM-1, SHV-12); assay type: cell-based; settings: alone
[6] = test system: K. pneumoniae 115468; assay: Broth microdilution MIC (strain enzymes: TEM-1); assay type: cell-based; settings: alone
[7] = test system: E. coli 2806; assay: Broth microdilution MIC (strain enzymes: SHV-12, TEM-1); assay type: cell-based; settings: alone
[8] = test system: K. oxytoca 496 #2; assay: Broth microdilution MIC (strain enzymes: SHV-105, TEM-1); assay type: cell-based; settings: alone
[9] = test system: K. pneumoniae KI (KCl); assay: Broth microdilution MIC (strain enzymes: TEM-10); assay type: cell-based; settings: alone
[10] = test system: E. coli 25922; assay: Broth microdilution MIC (strain enzymes: None detected); assay type: cell-based; settings: alone
[11] = test system: K. pneumoniae 153239; assay: Broth microdilution MIC (strain enzymes: SHV-11, TEM-1); assay type: cell-based; settings: alone
[12] = test system: panel of ESBL-producing Enterobacteriaceae (40 strains); assay: Broth microdilution MIC50/MIC90 summary over the panel; assay type: cell-based; settings: No BLI
[13] = test system: E. coli 3327; assay: Broth microdilution MIC (strain enzymes: TEM-1, SHV-12); assay type: cell-based; settings: alone
[14] = test system: K. pneumoniae 304487; assay: Broth microdilution MIC (strain enzymes: SHV-12,TEM-1); assay type: cell-based; settings: alone
[15] = test system: K. pneumoniae ESBL 10; assay: Broth microdilution MIC (strain enzymes: SHV-12, TEM-1); assay type: cell-based; settings: alone
[16] = test system: K. pneumoniae 329633; assay: Broth microdilution MIC (strain enzymes: SHV-5, TEM-1); assay type: cell-based; settings: alone
[17] = test system: K. oxytoca 176877; assay: Broth microdilution MIC (strain enzymes: SHV-105); assay type: cell-based; settings: alone
[18] = test system: K. pneumoniae ESBL 8 #2; assay: Broth microdilution MIC (strain enzymes: SHV-12, TEM-1); assay type: cell-based; settings: alone
[19] = test system: E. coli SI-PBLII; assay: Broth microdilution MIC (strain enzymes: CTX-M2, TEM-1); assay type: cell-based; settings: alone
[20] = test system: E. coli SI-V502; assay: Broth microdilution MIC (strain enzymes: TEM-29, CTX-M15); assay type: cell-based; settings: alone
[21] = test system: K. pneumoniae 11/23 LF#2; assay: microbe, parasite or virus in culture; assay type: cell-based; settings: alone
[22] = Excipient screening: solubility in SEDDS excipients; assay type: physicochemical; settings: thermodynamic from solid
Procedure: The solubility of Compound 1-ethanolate was evaluated in a series of pharmaceutically acceptable excipients that are commonly used to prepare self-emulsifying drug delivery systems (SEDDS) for oral drug delivery. This class of formulation results in a solid solution of drug substance and excipients that enable the delivery of the drug substance and prevents precipitation upon contact with aqueous environments (i.e. the stomach). The indicated quantity of Compound 1-ethanolate was weighed into a 3 mL screw top glass vial outfitted with a magnetic stir bar. The vial was transferred to a controlled temperature heating block and 100 μL aliquots of each excipient was added with stirring. After each addition, the sample was evaluated for dissolution of the drug substance and additional aliquots of excipient were added until a clear, colorless solution was obtained. Table 22 summarizes the solubility screening for 25 excipients.

## CC1=C(C(=O)O)N2C(=O)[C@@H](NC(=O)[C@H](N)c3ccccc3)[C@H]2SC1 [Cephalexin, cefalexin, reference compound]
[1]
  MIC of cefalexin (LEX): 4 µg/mL
[2]
  MIC of cefalexin (LEX): 1 µg/mL
[3]
  MIC of cefalexin (LEX): 0.25 µg/mL
[4]
  MIC of cefalexin (LEX): 2 µg/mL
[5]
  MIC of cefalexin (LEX): 16 µg/mL
[6]
  MIC of cefalexin (LEX): 8 µg/mL
[7]
  MIC of cefalexin (LEX): 4 µg/mL
[8]
  MIC of cefalexin (LEX): 16 µg/mL
[9]
  MIC of cefalexin (LEX): 1 µg/mL
[10]
  MIC of cefalexin (LEX): 0.5 µg/mL
[11]
  MIC of cefalexin (LEX): 2 µg/mL
[12]
  Cephalexin MIC50: >32 µg/mL
  Cephalexin MIC90: >32 µg/mL
[13]
  MIC of cefalexin (LEX): 16 µg/mL
[14]
  MIC of cefalexin (LEX): 8 µg/mL
[15]
  MIC of cefalexin (LEX): 16 µg/mL
[16]
  MIC of cefalexin (LEX): 16 µg/mL
[17]
  MIC of cefalexin (LEX): 8 µg/mL
[18]
  MIC of cefalexin (LEX): 16 µg/mL
[19]
  MIC of cefalexin (LEX): 2 µg/mL
[20]
  MIC of cefalexin (LEX): 2 µg/mL
[21]
  MIC of cefalexin (LEX): 2 µg/mL

## CCOB1Oc2c(cccc2C(=O)OCOC(=O)C(CC)CC)C[C@@H]1NC(=O)CC [Compound 1-ethanolate, ((2-ethylbutanoyl)oxy)methyl (R)-2-ethoxy-3-propionamido-3,4-dihydro-2H-benzo[e][1,2]oxaborinine-8-carboxylate]
[22]; 50 °C, oil or lipid, Labrafil M1944CS (Oleoyl polyoxyl-6 glycerides)
  solubility: > 140 mg/mL
[22]; 50 °C, oil or lipid, Labrafil M2125C5 (Linoleoyl polyoxyl-6 glycerides)
  solubility: > 152 mg/mL
[22]; 50 °C, oil or lipid, Plurol Oleique CC497 (Polyglyceryl-3 dioleate)
  solubility: > 375 mg/mL
[22]; 50 °C, organic solvent or mixture, Gelucire 44/14 (Lauroyl polyoxyl-32 glycerides)
  solubility: > 284 mg/mL
[22]; 50 °C, organic solvent or mixture, Kolliphor EL (Polyoxyl 35 hydrogenated castor oil)
  solubility: > 376 mg/mL
[22]; 50 °C, organic solvent or mixture, Kolliphor RH (PEG-40 Hydrogenated Castor Oil)
  solubility: ~172 mg/mL (≈ 410 mM)
[22]; 50 °C, organic solvent or mixture, Labrasol (Caprylocaproyl polyoxyl-8 glycerides)
  solubility: > 585 mg/mL
[22]; 50 °C, organic solvent or mixture, Polysorbate 80 (Polyoxyethylene (20) sorbitan monooleate)
  solubility: > 238 mg/mL
[22]; Capmul MCM (Caprylic/capric mono- & diglycerides), 50 °C, oil or lipid
  solubility: > 351 mg/mL
[22]; Ethanol, 50 °C, organic solvent or mixture
  solubility: > 568 mg/mL
[22]; Glycerol, 50 °C, organic solvent or mixture
  solubility: < 55.8 mg/mL
[22]; Lauroglycol (Propylene Glycol Monolaurate), neat excipient, 50 °C, oil or lipid
  solubility: > 292 mg/mL
[22]; Maisine CC (glyceryl monolinoleate), 50 °C, oil or lipid
  solubility: > 368 mg/mL
[22]; Myrj 52 (PEG-40 Stearate), neat excipient, 50 °C, organic solvent or mixture
  solubility: > 277 mg/mL
[22]; PEG-400, 50 °C, organic solvent or mixture, PEG-400, 50° C.
  solubility: > 498 mg/mL
[22]; PEG-1500, 50 °C, organic solvent or mixture, PEG-1500, 50° C.
  solubility: > 382 mg/mL
[22]; PEG-3350, 65 °C, organic solvent or mixture, PEG-3350, 65° C.
  solubility: > 280 mg/mL
[22]; Peceol (Glyceryl monooleate), neat excipient, 50 °C, oil or lipid
  solubility: > 413 mg/mL
[22]; Phosal 50 PG (50% PC and propylene glycol), 50 °C, oil or lipid
  solubility: > 419 mg/mL
[22]; Poloxamer 188, neat excipient, 65 °C, organic solvent or mixture, Poloxamer 188
  solubility: > 225 mg/mL
[22]; Propylene Glycol, 50 °C, organic solvent or mixture
  solubility: > 1210 mg/mL
[22]; Span 20 (Sorbitan monolaurate), neat excipient, 50 °C, organic solvent or mixture
  solubility: > 227 mg/mL
[22]; Span 80, 50 °C, organic solvent or mixture, Span 80, 50° C.
  solubility: > 276 mg/mL
[22]; TPGS, neat excipient, 50 °C, organic solvent or mixture
  solubility: > 229 mg/mL
[22]; Triacetin (glycerin triacetate), 50 °C, organic solvent or mixture
  solubility: > 84.2 mg/mL
